From PubChem BioAssay AID1259408 (Genetic Toxicology Data Bank (GENE-TOX), 2018) come the findings set out here.

This series has as its system GENE-TOX genotoxicity assays, various organisms and cells. As to the kind of experiment: GENE-TOX mutagenicity studies. The note with it: for call: Assay Type: In vivo carcinogenicity studies.
Setting [1] is: Species/Cell Type: Mammalian polychromatic erythrocytes, Assay Type: Micronucleus test, chromosome aberrations, Assay Code: MNT+, Evaluation Type: Evaluation B (Post-1980).
Where [2] appears, read: Species/Cell Type: Mammalian polychromatic erythrocytes, Assay Type: Micronucleus test, chromosome aberrations, Assay Code: MNTT, Evaluation Type: Evaluation B (Post-1980).
The mark [3] stands for this setting: Species/Cell Type: Nonhuman, Assay Code: CCG+, Evaluation Type: Evaluation A (Pre-1980).
[4] abbreviates: Species/Cell Type: Salmonella typhimurium (one or more of the five standard strains: TA98, TA100, TA1535, TA1537, and TA1538), Assay Type: Histidine reverse gene mutation, Ames assay, Assay Code: SAL-, Evaluation Type: Evaluation A (Pre-1980).
The mark [5] stands for this setting: Species/Cell Type: Salmonella typhimurium, Assay Type: Forward and reverse gene mutation, host-mediated assay, Assay Code: HMA+, Evaluation Type: Evaluation A (Pre-1980).
The mark [6] stands for this setting: Species/Cell Type: Salmonella typhimurium (one or more of the five standard strains: TA98, TA100, TA1535, TA1537, and TA1538), Assay Type: Histidine reverse gene mutation, Ames assay, Assay Code: SAL+*, Activation: With metabolic activation, Evaluation Type: Evaluation A (Pre-1980).
The mark [7] stands for this setting: Species/Cell Type: Salmonella typhimurium (one or more of the five standard strains: TA98, TA100, TA1535, TA1537, and TA1538), Assay Type: Histidine reverse gene mutation, Ames assay, Assay Code: SALT, Evaluation Type: Evaluation A (Pre-1980).
[8] abbreviates: Species/Cell Type: Allium cepa, Assay Type: Chromosome aberrations, Assay Code: ALC+, Evaluation Type: Evaluation A (Pre-1980).
Setting [9] is: Species/Cell Type: Salmonella typhimurium (one or more of the five standard strains: TA98, TA100, TA1535, TA1537, and TA1538), Assay Type: Histidine reverse gene mutation, Ames assay, Assay Code: SAL+, Evaluation Type: Evaluation A (Pre-1980).

The source made the active and inactive calls. No rule for the calls is given here.

With `CNNC`, the mutagenic call by setting is: (Species/Cell Type: Escherichia coli polA (W3119 vs P3478), Assay Type: Rec-assay, DNA effects (bacterial DNA repair), Assay Code: RE1+, Evaluation Type: Evaluation A (Pre-1980)) “active; positive”; (Species/Cell Type: Escherichia coli polA (W3119 vs P3478), Assay Type: Rec-assay, DNA effects (bacterial DNA repair), Assay Code: RE1T, Evaluation Type: Evaluation A (Pre-1980)) “no conclusion”; under setting [1], “active; positive”; (Species/Cell Type: Mammalian polychromatic erythrocytes, Assay Type: Micronucleus test, chromosome aberrations, Assay Code: MNTT, Evaluation Type: Evaluation A (Pre-1980)) “no conclusion”; under setting [2], “no conclusion”; (Species/Cell Type: Nonhuman, Assay Type: Sister-chromatid exchange (SCE) in vitro, Assay Code: SC2+D, Dose Response: With dose response, Evaluation Type: Evaluation B (Post-1980)) “active; positive”. The mutagenic call runs as follows: (Species/Cell Type: Saccharomyces cerevisiae, Assay Type: Mitotic recombination or gene conversion, Assay Code: YEHT, Evaluation Type: Evaluation A (Pre-1980)) “no conclusion”; under setting [4], “inactive; negative”; (Species/Cell Type: Salmonella typhimurium, Assay Type: Forward and reverse gene mutation, body fluid assay, Assay Code: BFU-, Evaluation Type: Evaluation A (Pre-1980)) “inactive; negative”; under setting [5], “active; positive”; (Species/Cell Type: Syrian hamster embryo (SHE) cells, Assay Type: Cell transformation, clonal assay, Assay Code: CTCT, Evaluation Type: Evaluation A (Pre-1980)) “no conclusion”. Besides, the call under setting [3] is “active; positive”.

Take `CC(C)CC=O`: the mutagenic call by setting is: (Species/Cell Type: Human lymphocytes, Assay Type: Sister-chromatid exchange (SCE) in vitro, Assay Code: SCL+, Evaluation Type: Evaluation B (Post-1980)) “active; positive”; (Species/Cell Type: Human, Assay Type: Sister-chromatid exchange (SCE) in vitro, Assay Code: SC1+, Evaluation Type: Evaluation B (Post-1980)) “active; positive”.

Turning to `c1ccc2c(c1)ccc1nc3ccc4ccccc4c3cc12`, the mutagenic call is “active; positive” (Species/Cell Type: Fischer rat embryo (RLV/1706) cells, Assay Type: Cell transformation, viral enhanced, Assay Code: CTR+, Evaluation Type: Evaluation A (Pre-1980)) and “active; positive” under setting [6]. Also, under setting [3], the call is “active; positive”.

`CCN(Cc1cccc(S(=O)(=O)O)c1)c1ccc(C(=C2C=CC(=[N+](CC)Cc3cccc(S(=O)(=O)O)c3)C=C2)c2ccccc2S(=O)(=O)[O-])cc1`: the mutagenic call was “inactive; negative” (Species/Cell Type: Bacillus subtilis (H17 vs M45), Assay Type: Rec-assay, spot test, DNA effects (bacterial DNA repair), Assay Code: REW-, Evaluation Type: Evaluation A (Pre-1980)) and “inactive; negative” under setting [4].

As to `O=NN1CCN(N=O)CC1`, the mutagenic call is “active; positive” (Species/Cell Type: Drosophila melanogaster, Assay Type: Sex-linked recessive lethal gene mutation, Assay Code: SRL+, Evaluation Type: Evaluation A (Pre-1980)); “no conclusion” (Species/Cell Type: Drosophila melanogaster, Sex: Male, Assay Type: Heritable translocation test, chromosome aberrations, Assay Code: DHTT, Evaluation Type: Evaluation A (Pre-1980)); “inactive; negative” (Species/Cell Type: Glycine max (soybean), Assay Type: Gene mutation, Assay Code: GLM-, Evaluation Type: Evaluation A (Pre-1980)); “active; positive” (Species/Cell Type: Mouse embryo (AKR/ME) cells, Assay Type: Cell transformation, Assay Code: CTK+, Evaluation Type: Evaluation A (Pre-1980)); “active; positive” under setting [6]; “active; positive” under setting [5]. Further, the call under setting [3] was “active; positive”.

With `Clc1cccc(C2CO2)c1` (stereo not drawn), the mutagenic call by setting is: (Species/Cell Type: Escherichia coli WP2 UVRA, Assay Type: Tryptophan reverse gene mutation, Assay Code: WPU+D, Dose Response: With dose response, Evaluation Type: Evaluation A (Pre-1980)) “active; positive”; under setting [7], “no conclusion”.

Take `O=C(OCC1=CCN2CC[C@@H](OC(=O)c3ccc([N+](=O)[O-])cc3)[C@@H]12)c1ccc([N+](=O)[O-])cc1`: the mutagenic call under setting [8] was “active; positive”.

Consider `CC(=O)c1cc(O)c(C(C)C)c2cc(C)c(-c3c(C)cc4c(C(C)C)c(O)c(O)c(C=O)c4c3O)c(O)c12`, for which the mutagenic call runs as follows: under setting [2], “no conclusion”; (Species/Cell Type: Nonhuman, Assay Type: Sister-chromatid exchange (SCE) in vivo, Assay Code: SC3+D, Dose Response: With dose response, Evaluation Type: Evaluation B (Post-1980)) “active; positive”.

For the compound `Cn1sc(Cl)cc1=O`, the mutagenic call (Species/Cell Type: Mammalian polychromatic erythrocytes, Assay Type: Micronucleus test, chromosome aberrations, Assay Code: MNT-, Evaluation Type: Evaluation B (Post-1980)) is “inactive; negative”.

In the case of `CC1CCCC(C)N1N=O` (stereo not drawn), the mutagenic call by setting is: (Species/Cell Type: Drosophila melanogaster, Assay Type: Aneuploidy, partial sex chromosome loss, chromosome aberrations, Assay Code: DAPT, Evaluation Type: Evaluation A (Pre-1980)) “no conclusion”; (Species/Cell Type: Drosophila melanogaster, Assay Type: Aneuploidy, whole sex chromosome loss, chromosome aberrations, Assay Code: DACT, Evaluation Type: Evaluation A (Pre-1980)) “no conclusion”; (Species/Cell Type: Drosophila melanogaster, Assay Type: Sex-linked recessive lethal gene mutation, Assay Code: SRLT, Evaluation Type: Evaluation A (Pre-1980)) “no conclusion”; (Species/Cell Type: Saccharomyces cerevisiae, Assay Type: Forward gene mutation, Assay Code: YEF-*, Activation: With metabolic activation, Evaluation Type: Evaluation A (Pre-1980)) “inactive; negative”; (Species/Cell Type: Saccharomyces cerevisiae, Assay Type: Reverse gene mutation, Assay Code: YER+*, Activation: With metabolic activation, Evaluation Type: Evaluation A (Pre-1980)) “active; positive”. Moreover, the call (Species/Cell Type: Nonhuman, Assay Code: CCGT, Evaluation Type: Evaluation A (Pre-1980)) is recorded as “no conclusion”.

Turning to `[O]=[V](=[O])[OH]`, under “Species/Cell Type: Bacillus subtilis (H17 vs M45), Assay Type: Rec-assay, spot test, DNA effects (bacterial DNA repair), Assay Code: REW+, Evaluation Type: Evaluation A (Pre-1980)”, the mutagenic call was “active; positive”.

Take `CCCCCCO`: the mutagenic call (Species/Cell Type: Nonhuman, Assay Type: Sister-chromatid exchange (SCE) in vivo, Assay Code: SC3T, Evaluation Type: Evaluation B (Post-1980)) is listed as “no conclusion”.

With `C=[N+]=[N-]`, the mutagenic call by setting is: (Species/Cell Type: Neurospora crassa, Assay Type: Reverse gene mutation, Assay Code: NER+, Evaluation Type: Evaluation A (Pre-1980)) “active; positive”; (Species/Cell Type: Saccharomyces cerevisiae, Assay Type: Reverse gene mutation, Assay Code: YER+, Evaluation Type: Evaluation A (Pre-1980)) “active; positive”. In addition, the call (Species/Cell Type: Nonhuman, Assay Code: CCG+L, Evaluation Type: Evaluation A (Pre-1980)) was “active; positive”.

With `O=[N+]([O-])c1cc([N+](=O)[O-])c2ccc3cccc4ccc1c2c43`, the mutagenic call (Species/Cell Type: Chinese hamster ovary (CHO) cells, Assay Type: Forward gene mutation at the HPRT locus, Assay Code: CHO+*, Activation: With metabolic activation, Evaluation Type: Evaluation B (Post-1980)) is “active; positive”.

`COC(=O)[C@@]12Oc3ccc(-c4ccc5c(c4O)C(O)=C4C(=O)C[C@H](C)[C@@H](O)[C@]4(C(=O)OC)O5)c(O)c3C(O)=C1C(=O)C[C@H](C)[C@H]2O`: the mutagenic call under setting [7] is given as “no conclusion”.

In the case of `CCCCCc1cc(O)c2c(c1)OC(C)(C)[C@@H]1CCC(CO)=C[C@@H]21`, the mutagenic call (Species/Cell Type: Human diploid fibroblasts, Assay Type: Unscheduled DNA synthesis (UDS) in vitro, DNA effects, Assay Code: UDH-, Evaluation Type: Evaluation A (Pre-1980)) was “inactive; negative”.

With `COCCOC(=O)c1ccccc1C(=O)OCCOC`, the mutagenic call (Species/Cell Type: Rodents, Sex: Male, Assay Type: Dominant lethal test, Assay Code: DLTT, Evaluation Type: Evaluation A (Pre-1980)) is “no conclusion”.

With `O=c1c(O)c(-c2ccc(O)c(O)c2)oc2cc(O)cc(O)c12`, the mutagenic call (Species/Cell Type: Chinese hamster ovary (CHO) cells, Assay Type: Forward gene mutation at the HPRT locus, Assay Code: CHOT, Evaluation Type: Evaluation B (Post-1980)) is “no conclusion”; the mutagenic call (Species/Cell Type: Human lymphocytes, Assay Type: Sister-chromatid exchange (SCE) in vitro, Assay Code: SCL+D, Dose Response: With dose response, Evaluation Type: Evaluation B (Post-1980)) was “active; positive”; the mutagenic call (Species/Cell Type: Human, Assay Type: Sister-chromatid exchange (SCE) in vitro, Assay Code: SC1+D, Dose Response: With dose response, Evaluation Type: Evaluation B (Post-1980)) is “active; positive”; the mutagenic call under setting [1] was “active; positive”; the mutagenic call (Species/Cell Type: Nonhuman, Assay Type: Sister-chromatid exchange (SCE) in vitro, Assay Code: SC2+/-*, Activation: With metabolic activation, Evaluation Type: Evaluation B (Post-1980)) was “inactive; positive without activation, negative with activation”; the mutagenic call (Species/Cell Type: Nonhuman, Assay Type: Sister-chromatid exchange (SCE) in vivo, Assay Code: SC3-, Evaluation Type: Evaluation B (Post-1980)) is “inactive; negative”. Also, the mutagenic call runs as follows: (Species/Cell Type: Saccharomyces cerevisiae, Assay Type: Mitotic recombination or gene conversion, Assay Code: YEC+, Evaluation Type: Evaluation A (Pre-1980)) “active; positive”; under setting [9], “active; positive”.

For `O=[N+]([O-])c1ccc(O)c([N+](=O)[O-])c1`, the mutagenic call reads like this: under setting [8], “active; positive”; (Species/Cell Type: Arabidopsis species, Assay Type: Gene mutation, Assay Code: ARM-, Evaluation Type: Evaluation A (Pre-1980)) “inactive; negative”.

For `CCCCN(CCC(=O)O)N=O`, the mutagenic call under setting [9] was “active; positive”.
